Assay results: patent US7528151B2, “Heterocyclic urea derivatives for the treatment of pain” (Glaxo Group Limited, priority 2003, dated 2009)
Where a name gives a salt, the structure may show the parent alone.

Molecular target: T1, human VR1 (Homo sapiens, UniProt Q8NER1)
T1 construct: expressed in transfected cells
Experiment: FLIPR based calcium assay, capsaicin-induced response in 1321N1 cells stably expressing human VR1
Type: cell-based
Settings: antagonism of capsaicin response; pKb generated from IC50 using the Cheng-Prusoff equation
Description: Transfected astrocytoma 1321N1 cells, stably expressing human VR1, were seeded into FLIPR plates at 25,000cells/well (96-well plate) and cultured overnight. The cells were subsequently loaded in medium containing 4 μM Fluo-3 AM (Molecular Probes) for 2 hours, at room temperature, in the dark. The plates were then washed 4 times with Tyrode containing 1.5 mM calcium, without probenecid. The cells were pre-incubated with compound or buffer control at room temperature for 30 minutes. Capsaicin (Sigma) was then added to the cells. Compounds having antagonist activity against the human VR1 were identified by detecting differences in fluorescence when measured after capsaicin addition, compared with no compound buffer controls.

T1 sequence (Q8NER1 whole entry): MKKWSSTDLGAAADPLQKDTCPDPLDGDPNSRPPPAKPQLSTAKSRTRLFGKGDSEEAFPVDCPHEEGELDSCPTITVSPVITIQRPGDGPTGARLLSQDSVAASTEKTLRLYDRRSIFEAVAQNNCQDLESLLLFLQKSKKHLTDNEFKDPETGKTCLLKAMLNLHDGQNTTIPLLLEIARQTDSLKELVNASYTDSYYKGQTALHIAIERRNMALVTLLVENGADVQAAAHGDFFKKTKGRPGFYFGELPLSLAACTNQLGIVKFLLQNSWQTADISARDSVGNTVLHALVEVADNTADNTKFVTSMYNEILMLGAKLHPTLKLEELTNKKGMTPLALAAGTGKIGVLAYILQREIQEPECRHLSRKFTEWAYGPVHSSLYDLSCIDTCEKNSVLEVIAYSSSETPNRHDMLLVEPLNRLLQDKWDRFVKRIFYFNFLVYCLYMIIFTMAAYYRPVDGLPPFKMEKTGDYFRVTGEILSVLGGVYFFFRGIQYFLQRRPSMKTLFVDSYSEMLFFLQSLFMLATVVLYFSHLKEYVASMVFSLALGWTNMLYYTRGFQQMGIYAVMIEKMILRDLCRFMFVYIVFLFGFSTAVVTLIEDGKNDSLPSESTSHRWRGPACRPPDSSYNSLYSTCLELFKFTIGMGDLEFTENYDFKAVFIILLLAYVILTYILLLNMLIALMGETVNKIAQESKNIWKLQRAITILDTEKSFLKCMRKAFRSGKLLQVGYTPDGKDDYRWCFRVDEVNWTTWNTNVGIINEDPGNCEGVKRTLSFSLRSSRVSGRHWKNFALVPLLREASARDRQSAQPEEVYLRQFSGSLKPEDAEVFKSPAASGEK

Kb [nM] | SMILES
< 100 | COc1nc(N2CCC(NC(=O)Nc3cccc4c(C)nccc34)CC2)ccc1C(F)(F)F [Example 2, 1-([6-Methoxy-5-trifluoromethylpyridinyl-2-yl]piperidin-4-yl)-3-(1-methyl-isoquinolin-5-yl)-urea hydrochloride]
< 100 | Cc1nccc2c(NC(=O)NC3CCN(c4ncc(C(F)(F)F)cc4Cl)CC3)cccc12 [Example 1, 1-([3-Chloro-5-trifluoromethylpyridinyl-2-yl]piperidin-4-yl)-3-(1-methyl-isoquinolin-5-yl)-urea hydrochloride]
